# Assay results reported in US20240417395A1, “DUAL ANTAGONIST AND USE THEREOF” (NICOYA THERAPEUTICS (SHANGHAI) CO., LTD, priority 2021, published 2024).
# Read-outs that look alike come from different tables or passages of the source.
# Biological target: ETa (Homo sapiens (Human), UniProt P25101)
# Assay: Calcium flux assay on ETa cell line
# Format: cell-based
# Conditions: ETa/HEK293, calcium flux, endothelin-1 agonist
# Method: Test materials: a) cell line: ETa/HEK293; b) vehicles: DMEM, Invitrogen (Cat #11960); Geneticin, Invitrogen (Cat #10131); c) reagent: Fluo-4 Direct, (Invitrogen, Cat #F10471); d) instruments: 384 well Poly-D-Lysine protein coating plate, Greiner #781946; Vi-cell XR Cell Viability Analyzer, Beckman Coulter; Incubator, Thermo.
# For the employed agonist endothelin factor (endothelin-1, ET-1) master plate: the agonist was diluted from 50 μM to 15 μM with the test buffer solution.
# For antagonist (BQ123, Am J Physiol. 1994 April; 266 (4 Pt 2): H1327-31.) plates and the compound plates: the antagonist and the tested compounds were diluted with DMSO at a gradient ratio of 1:4 to obtain 10 concentration points. Afterwards, 900 nL of each compound solution was transferred to the master plate and 30 μL of the test buffer solution was added. • a) The cell line was removed from the incubator, and 20 μL of 2X Fluo-4 Direct™ buffer solution was added gently by a pipette to a 384-well cell culture plate. • b) The cell plate was incubated at 37° C. for 50 min in the environment of 5% CO2, and then incubated at room temperature for 10 min. • c) The cell plate was removed from the incubator and placed in FLIPR. The compound plates and the tip box were placed in FLIPR. • d) Regarding the EC80 plate: • 1) Operations were conducted on […]. • 2) 10 μL of compound solution was transferred from the EC80 master plate to the cell plate. • 3) Fluorescence signals were read. • 4) The read signals were counted, and the EC80 value of each cell line was calculated using FLIPR. • 5) For the concentration of the compound plate, a solution having a concentration 6 times that of the reference agonist EC80 was formulated. • e) Regarding the compound plate: • 1) Operations were conducted on […]. • 2) 10 μL of compound was transferred to the cell plate. • 3) Fluorescence signals were read. • 4) 10 μL of solution having a concentration 6 times that of the reference agonist EC80 was transferred to the cell plate. • 5) Fluorescence signals were read. • f) Data analysis by Prism
# [1] = read-out: IC50 activity against ETa (class)
# ETa, sequence (P25101 21-427): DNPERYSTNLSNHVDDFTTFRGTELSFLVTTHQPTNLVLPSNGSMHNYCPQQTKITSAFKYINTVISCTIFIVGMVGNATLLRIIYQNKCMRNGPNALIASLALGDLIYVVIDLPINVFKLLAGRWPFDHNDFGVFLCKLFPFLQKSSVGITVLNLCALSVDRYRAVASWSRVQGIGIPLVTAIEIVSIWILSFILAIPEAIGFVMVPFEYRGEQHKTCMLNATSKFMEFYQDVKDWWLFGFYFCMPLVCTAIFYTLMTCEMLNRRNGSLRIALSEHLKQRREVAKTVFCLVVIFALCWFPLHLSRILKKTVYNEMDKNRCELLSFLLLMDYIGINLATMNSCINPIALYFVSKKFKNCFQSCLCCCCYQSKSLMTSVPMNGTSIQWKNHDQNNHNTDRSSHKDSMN
Structure (SMILES),IC50 [1],IC50 (read-out: IC50 against ETa)
CCCCC1=N[C@@]2(CC3C[C@H]3C2)C(=O)N1Cc1ccc(-c2ccccc2S(=O)(=O)Nc2noc(C)c2C)c(COCC)c1 (some centres unmarked) [Example 3],10 to 100 nM,10.5 nM
CCCCC1=N[C@@]2(CC3C[C@H]3C2)C(=O)N1Cc1ccc(-c2ccccc2S(=O)(=O)Nc2noc(C)c2Cl)c(COCC)c1 (some centres unmarked) [Example 7],10 to 100 nM,24.3 nM
"CCCCC1=NC2(CCCC2)C(=O)N1Cc1ccc(-c2ccccc2S(=O)(=O)Nc2noc(C)c2C)c(COCC)c1 [Sparsentan, reference compound]",,80.8 nM
